Reference: the NIST ThermoML archive (doi:10.1021/acs.jced.5b00326)
“And” between values parts separate entries of the source, which are not always exact repeats. Equal values may be shown once.

Assay: mn = molality of the nth substance listed, in mol/kg
Conditions: Liquid; for speed of sound: 100 kPa, Frequency=3 MHz, Sing-around technique in a fixed-path interferometer; for mass density: 101 kPa, Vibrating tube method

CCCCCCn1cc[n+](C)c1.[Cl-] [1-hexyl-3-methylimidazolium chloride] + O
Conditions	mass density, 288.15 K [kg/m3]	mass density, 293.15 K [kg/m3]	mass density, 298.15 K [kg/m3]	mass density, 303.15 K [kg/m3]	mass density, 308.15 K [kg/m3]	speed of sound, 288.15 K	speed of sound, 293.15 K	speed of sound, 298.15 K	speed of sound, 303.15 K	speed of sound, 308.15 K
m1 = 0.01	999.911	999.007	997.841	996.436	994.818	1474.3 m/s and 1468.6 m/s	1484.6 m/s and 1490.1 m/s	1498.7 m/s and 1505 m/s	1511 m/s and 1517 m/s	1521.3 m/s and 1525.1 m/s
m1 = 0.03	1000.17	999.246	998.052	996.623	995.004	1474.3 m/s	1490.1 m/s	1505 m/s	1517 m/s	1525.1 m/s
